Data reported in patent publication US9464106B2, “Oligonucleotides useful for detecting and analyzing nucleic acids of interest” (Exiqon A/S, priority 2002, dated 2016).
l = locked nucleic acid (LNA); d = 2'-deoxy (DNA)

Test system: yeast HSP78 (YDR258C) sequence
Assay: Duplex melting temperatures of HSP78 25-mer capture probes (UV spectrophotometer)
Conditions: 25-mer capture probe duplex with complementary target; design PM = perfectly matched, MM = single mismatch; DNA, LNA_T (T) or LNA_TC (TC) substituted

First: 12680 (DNA ACCATCATCACCGAACTTTGTGTCG; DNA, backbone not given here) [compound 12680]
Second: 12681 (DNA CAATGATCGTGTAACGGAAATCAAC; DNA, backbone not given here) [compound 12681]
The “Average duplex melting temp.” value of the first is higher: 63.6 °C for the first, 59.3 °C for the second.

Going from “12682 (DNA TGGCCTAGGGAAACGGTCAGCTTAC; DNA, backbone not given here) [compound 12682]” to “12683 (DNA TTGGAAACATCGCGGTGCGCTTTTT; DNA, backbone not given here) [compound 12683]”, the “Average duplex melting temp.” value falls from 65.2 °C to 61.5 °C.

Going from “12684 (DNA GAAACATCGGGGAGCGCTTTTTCAA; DNA, backbone not given here) [compound 12684]” to “12685 (DNA GACAGCCTCAGTAAATTGGCCACCA; DNA, backbone not given here) [compound 12685]”, the “Average duplex melting temp.” value rises from 63.8 °C to 64.8 °C.

Going from “12686 (DNA CCGATTAAACGACAGACAGTATGCT; DNA, backbone not given here) [compound 12686]” to “12687 (DNA ATCAAATAGGAAATCAGCTAAAGCC; DNA, backbone not given here) [compound 12687]”, the “Average duplex melting temp.” value falls from 57.1 °C to 54.3 °C.

First: 12688 (DNA GACCTAAGAACAAAAAGCTGGCAAT; DNA, backbone not given here) [compound 12688]
Second: 12689 (DNA AAATAGCAGCAAAGGCCTCGTCTTG; DNA, backbone not given here) [compound 12689]
The “Average duplex melting temp.” value of the first is lower: 58.2 °C for the first, 64 °C for the second.

Compared with “12690 (DNA ATAGCAGCAATGCCCTCGTCTTGGC; DNA, backbone not given here) [compound 12690]”, “12691 (DNA GCAATGGCCTCGACTTGGCCAACGA; DNA, backbone not given here) [compound 12691]” is higher in “Average duplex melting temp.” value: 62.9 °C for the first, 68.5 °C for the second.

Compared with “12692 (DNA GATGAACTCAGGAGGATAGGATCTT; DNA, backbone not given here) [compound 12692]”, “12693 (DNA TCAGTTAGCCAAACCTTCGCTTCAT; DNA, backbone not given here) [compound 12693]” is higher in “Average duplex melting temp.” value: 58.2 °C for the first, 61.4 °C for the second.

Going from “12694 (DNA GTTGCCATGGAGATCAAAATCTGTC; DNA, backbone not given here) [compound 12694]” to “12695 (DNA AGACGTACAGCAACAGAAATAGCAG; DNA, backbone not given here) [compound 12695]”, the “Average duplex melting temp.” value rises from 60 °C to 61.2 °C.

Compared with “12696 (DNA TTTGGTAGCACGTCAAGCTTAGTAT; DNA, backbone not given here) [compound 12696]”, “12697 (DNA ATAAAGCTGGCATTAGGTCTCTTTT; DNA, backbone not given here) [compound 12697]” is lower in “Average duplex melting temp.” value: 59.2 °C for the first, 58.4 °C for the second.

Compared with “12698 (DNA TTTTTCGGCCAATCGATCTTGAATT; DNA, backbone not given here) [compound 12698]”, “12699 (DNA CACTCTAACAGTATCGCCGTTTCTA; DNA, backbone not given here) [compound 12699]” is higher in “Average duplex melting temp.” value: 58.8 °C for the first, 61.1 °C for the second.

Compared with “12700 (DNA TCAATGGCCTTGGACCATATAATTG; DNA, backbone not given here) [compound 12700]”, “12701 (DNA AAAACGACAGCAAAAGGCTTTCTTC; DNA, backbone not given here) [compound 12701]” is lower in “Average duplex melting temp.” value: 59.5 °C for the first, 58.8 °C for the second.

Going from “12702 (DNA ATTGACCTCAAATCTTTCTTGGATA; DNA, backbone not given here) [compound 12702]” to “12703 (DNA CCCAACTTTGTGACGTTTAATAAAA; DNA, backbone not given here) [compound 12703]”, the “Average duplex melting temp.” value rises from 54.5 °C to 56.2 °C.

Going from “12704 (DNA ACCATCATCACCGAACTTTGTGTCG; DNA at ACG, LNA at T, backbone not given here) [compound 12704]” to “12705 (DNA CAATGATCGTGTAACGGAAATCAAC; sugars from the 5' end dddlddlddlddddddddddldddd, backbone not given here) [compound 12705]”, the “Average duplex melting temp.” value falls from 74 °C to 65.2 °C.

Going from “12706 (DNA TGGCCTAGGGAAACGGTCAGCTTAC; DNA at ACG, LNA at T, backbone not given here) [compound 12706]” to “12707 (DNA TTGGAAACATCGCGGTGCGCTTTTT; sugars from the 5' end lldddddddldddddlddddlllld, backbone not given here) [compound 12707]”, the “Average duplex melting temp.” value falls from 71.6 °C to 68.6 °C.

First: 12708 (DNA GAAACATCGGGGAGCGCTTTTTCAA; sugars from the 5' end d6 l1 d10 l5 d3, backbone not given here) [compound 12708]
Second: 12709 (DNA GACAGCCTCAGTAAATTGGCCACCA; sugars from the 5' end d7 l1 d7 l2 d8, backbone not given here) [compound 12709]
The “Average duplex melting temp.” value of the first is higher: 69.9 °C for the first, 68.8 °C for the second.

First: 12710 (DNA CCGATTAAACGACAGACAGTATGCT; sugars from the 5' end ddddlldddddddddddddldlddd, backbone not given here) [compound 12710]
Second: 12711 (DNA ATCAAATAGGAAATCAGCTAAAGCC; sugars from the 5' end dlddddldddddddddddldddddd, backbone not given here) [compound 12711]
The “Average duplex melting temp.” value of the first is higher: 63.5 °C for the first, 58.1 °C for the second.

First: 12712 (DNA GACCTAAGAACAAAAAGCTGGCAAT; sugars from the 5' end d4 l1 d13 l1 d6, backbone not given here) [compound 12712]
Second: 12713 (DNA AAATAGCAGCAAAGGCCTCGTCTTG; DNA at ACG, LNA at T, backbone not given here) [compound 12713]
The “Average duplex melting temp.” value of the first is lower: 61.1 °C for the first, 70.4 °C for the second.

Compared with “12714 (DNA ATAGCAGCAATGCCCTCGTCTTGGC; DNA at ACG, LNA at T, backbone not given here) [compound 12714]”, “12715 (DNA GCAATGGCCTCGACTTGGCCAACGA; DNA at ACG, LNA at T, backbone not given here) [compound 12715]” is higher in “Average duplex melting temp.” value: 71.3 °C for the first, 73.7 °C for the second.

Compared with “12716 (DNA GATGAACTCAGGAGGATAGGATCTT; sugars from the 5' end ddlddddlddddddddlddddldld, backbone not given here) [compound 12716]”, “12717 (DNA TCAGTTAGCCAAACCTTCGCTTCAT; sugars from the 5' end ldddlldddddddddlldddllddd, backbone not given here) [compound 12717]” is higher in “Average duplex melting temp.” value: 64.9 °C for the first, 69.4 °C for the second.

With “12718 (DNA GTTGCCATGGAGATCAAAATCTGTC; sugars from the 5' end dllddddldddddddddddldldld, backbone not given here) [compound 12718]” the “Average duplex melting temp.” value was 69.2 °C.
